The subject of one assay is IL-1β mRNA. Description: Ocular IL-1β mRNA by quantitative real-time PCR in CEC dry eye mice. In kind it is in vivo, C57BL6 mice. The note with it: CEC 14 days, then topical PDSP for 5 days. How it is done:
Dry eye is associated with abnormalities in the pre-corneal tear film and subsequent inflammatory changes in the entire ocular surface including the adnexa, conjunctiva and cornea. (see, Hessen et al., “Dry eye: An Inflammatory Ocular Disease,” J. Ophthalmic Vis. Res., 2014, 9(2): 240-250). Therefore, the effects of PDSPs in corneal inflammatory responses were next examined. Briefly, C57BL6 mice were housed in CEC for 14 days (Day 0) and then treatment with PDSP or vehicle were performed for additional 5 days (Day 5). Then, mRNA levels for inflammatory factors were evaluated by quantitative real-time PCR.
The total RNA was extracted from cells using TRIzol (Invitrogen) and treated with RNase free DNase I (Qiagen, Santa Clarita, CA) to remove genomic DNA and then purified with an RNA purification kit (Dynabeads; Invitrogen). […] Quantitative real-time PCR was performed in a GeneAmp 7700 sequence detection system (Applied Biosystems, Foster City, CA). […] All determinations were measured in triplicate. The cycle threshold (Ct) values corresponded to the PCR cycle number at which fluorescence emission in real time reaches a threshold above the base-line emission were analyzed using GeneAmp 7700 SDS software. The Ct value of the PCR product of interest and a control mRNA (GAPDH) were then used to calculate relative quantities of mRNA between samples.
On the technique in general: Real-time PCR tracks product formation cycle by cycle.

Assay [1] relates to goblet cells in the conjunctiva. The assay is described as follows: PAS staining of conjunctival goblet cells in CEC dry eye mice. The note with it: CEC 14 days, then eye drop for 5 days; vehicle 37±1.1; non-stressed 58±3.1. The format is in vivo, C57BL/6 mice. The method, then:
Reduced mucin production could result from reduced goblet cells. […] Briefly, C57BL6 mice were housed in CEC for 14 days and then treated with PDSP or vehicle for additional 5 days. Non-stressed eyes are included as non-stressed controls (NS).
Dry eye was induced by placing mice in a controlled environment chamber (CEC) as previously described (Barabino et al., 2005). Briefly, mice placed in the CEC were exposed to a relative humidity (RH)<25%, temperature of 20 to 22° C., and airflow of 15 L/min, 12 hours per day. Non-stressed (NS) mice without stress-induced dry eye were kept in a normal environment (RH >50%, no air flow, temperature of 21-23° C.) for the same duration. Corneal fluorescein staining and
After animals were euthanized, eyes were surgically excised, fixed in 10% formalin, paraffin embedded, and cut into 5-μm sections. […] PAS-positive goblet cells in the conjunctiva were measured in five sections from each eye.

A further assay deals with 4-HNE. The assay is described as follows: 4-HNE immunohistochemistry (lipid peroxidation) in cornea and conjunctiva of CEC mice. In kind it is in vivo. The note with it: PDSP from beginning of 14 days in CEC. An excerpt:
For this test, mice were housed in CEC for 14 days and the PDSP treatment started at the beginning of housing in CEC. Then, the production of oxidative stress products (e.g., 4-hydroxy-2-nonenal, 4-HNE) was examined. 4-HNE was found throughout animal tissues, and in higher quantities during oxidative stress due to the increase in the lipid peroxidation. 4-HNE contains a reactive aldehyde, which may modify proteins. The 4-HNE-modified proteins may be detected with antibodies specific for the 4-HNE moiety.
Oxidative stress-induced lipid peroxidation was assessed by immunohistochemical detection of 4-hydroxy-2-nonenal (4HNE) in the cornea and conjunctiva. Formalin-fixed, paraffin-embedded eye specimens were deparaffinized in xylene and rehydrated in a graded series of ethanol concentrations. Slides were blocked with 10% goat serum for 60 min and then incubated with primary antibody against 4-HNE (1:100 dilution) (ab46545, Abcam) 4 hours at room temperature. The slides were subsequently incubated with the appropriate peroxidase-labeled goat immunoglobulin (1:500 dilution; Chemicon, Temecula, Calif.) for 20 min and then incubated with chromogen substrate (3,3′-diaminobenzidine) for 2 min before counterstaining with hematoxylin.

On to “PDSP: 29mer, residues 93-121 of human PEDF: SLGAEQRTESIIHRALYYDLISSPDIHGT (SEQ ID NO:4) (listed as Homo sapiens)”, for which the “repression of ocular IL-1β mRNA expression compared to vehicle-treated group” value in the assay on IL-1β mRNA is given as 2.4 fold. Moreover, the “conjunctival goblet cell counts (PAS-positive cells)” value in assay [1] was found to be 46±3.8. In the assay with 4-HNE (versus vehicle), the “4-HNE signal in the conjunctiva” value is on record as 4-HNE signal was clearly stronger in vehicle-treated eyes than in eyes subjected to the PDSP treatment. Further, the “number of cells positively stained for 4-HNE in corneal epithelia” value in the assay with 4-HNE (NS 1.9±0.6, vehicle 20.1±1.4) is 5.3±1.0.
